The text below walks through data of ChEMBL document CHEMBL3108733, “Design, synthesis, and evaluation of hydroxamic acid derivatives as promising agents for the management of Chagas disease” (J Med Chem, 2014).

In series [1] the test system is Trypanosoma cruzi. Briefly: Antitrypanosomal activity against Trypanosoma cruzi Dm28c trypomastigotes at 16 uM after 48 hrs by Neubauer chamber counting analysis relative to control. Format: functional.
Series [2] concerns Trypanosoma cruzi. As to the kind of experiment: Antitrypanosomal activity against Trypanosoma cruzi Y infected in BALB/c mouse peritoneal macrophages assessed as reduction of parasite burden at 32 uM after 48 hrs by Giemsa staining-based Neubauer chamber counting analysis relative to control. Also noted: scale not given: the % may be the effect or the level left. Format: functional.

Series [3] has as its system Trypanosoma cruzi. As to the kind of experiment: Trypanocidal activity against Trypanosoma cruzi Y infected in BALB/c mouse assessed as reduction in parasitemia at 25 mg/kg treated from day 2 to day 9 post-infection measured on day 9 post-infection. In kind it is functional, organism-based. Further details: dose 25 mg/kg.
Series [4] deals with Trypanosoma cruzi. Briefly: Antitrypanosomal activity against Trypanosoma cruzi Y trypomastigotes after 48 hrs by Neubauer chamber counting analysis.
In series [5] the test system is Trypanosoma cruzi. As to the kind of experiment: Trypanocidal activity against Trypanosoma cruzi Y infected in BALB/c mouse assessed as reduction in parasitemia at 25 mg/kg treated from day 2 to day 9 post-infection measured on day 6 post-infection. Format: functional, organism-based. Also noted: dose 25 mg/kg.
Series [6] concerns Trypanosoma cruzi. As to the kind of experiment: Antitrypanosomal activity against Trypanosoma cruzi Y infected in human THP1 cells assessed as reduction of parasite burden at 32 uM after 48 hrs by Giemsa staining-based Neubauer chamber counting analysis relative to control. In kind it is functional, THP-1. Also noted: scale not given: the % may be the effect or the level left.

Series [7] in a line: Cytotoxicity against BALB/c mouse peritoneal macrophages after 24 hrs by MTT/LDH assay. In kind it is cell-based, Peritoneal macrophage cell.
For series [8], the system named is Trypanosoma cruzi. Briefly: Antitrypanosomal activity against Trypanosoma cruzi Y infected in BALB/c mouse peritoneal macrophages assessed as reduction of parasite burden after 48 hrs by Giemsa staining-based Neubauer chamber counting analysis.
The subject of series [9] is Trypanosoma cruzi. As to the kind of experiment: Trypanocidal activity against Trypanosoma cruzi Y infected in BALB/c mouse assessed as mouse survival at 25 mg/kg treated from day 2 to day 9 post-infection. In kind it is functional.
Series [10] has as its system Trypanosoma cruzi. As to the kind of experiment: Antitrypanosomal activity against Trypanosoma cruzi Y trypomastigotes at 16 uM after 48 hrs by Neubauer chamber counting analysis relative to control. In kind it is functional.
Series [11] concerns Trypanosoma cruzi. As to the kind of experiment: Antitrypanosomal activity against Trypanosoma cruzi Y infected in BALB/c mouse peritoneal macrophages assessed as decrease in trypomastigotes release at 16 uM after 120 hrs by Giemsa staining-based Neubauer chamber counting analysis. In kind it is functional, organism-based.
Series [12] is described as follows: Cytotoxicity against BALB/c mouse peritoneal macrophages after 48 hrs by MTT/LDH assay. In kind it is cell-based, Peritoneal macrophage cell.
The subject of series [13] is Trypanosoma cruzi. Briefly: Antitrypanosomal activity against Trypanosoma cruzi Y epimastigotes after 5 days by resazurin dye-based assay. As to conditions: 120 h.
The test system of series [14] is Trypanosoma cruzi. As to the kind of experiment: Antitrypanosomal activity against Trypanosoma cruzi Dm28c epimastigotes after 5 days by resazurin dye-based assay. As to conditions: 120 h.
Series [15] relates to Trypanosoma cruzi. Briefly: Antitrypanosomal activity against Trypanosoma cruzi Dm28c trypomastigotes after 48 hrs by Neubauer chamber counting analysis.
Series [16] relates to Trypanosoma cruzi. As to conditions: Y, 32 to 64 uM.
Description: Inhibition of metallopeptidase in Trypanosoma cruzi Y epimastigotes at 32 to 64 uM after 12 hrs by gelatin zymography assay
A short description of series [17]: Inhibition of Trypanosoma cruzi recombinant carbonic anhydrase-mediated CO2 hydration by stopped-flow assay.
The subject of series [18] is Trypanosoma cruzi. Briefly: Antitrypanosomal activity against Trypanosoma cruzi Y epimastigotes assessed as growth inhibition at 32 uM after 5 days by Neubauer chamber counting analysis relative to control. In kind it is functional.
In series [19] the test system is Trypanosoma cruzi. As to the kind of experiment: Antitrypanosomal activity against Trypanosoma cruzi Y infected in human THP1 cells assessed as reduction of parasite burden after 48 hrs by Giemsa staining-based Neubauer chamber counting analysis. As to conditions: THP-1, 48 h.
In series [20] the test system is Trypanosoma cruzi. As to conditions: Y, 16 uM.
Description: Inhibition of MMP9 in Trypanosoma cruzi Y epimastigotes assessed as effect on protein level at 16 uM after 5 days by Western blotting analysis
Series [21] deals with Trypanosoma cruzi. Briefly: Antitrypanosomal activity against Trypanosoma cruzi Y infected in human THP1 cells assessed as decrease in intracellular amastigotes at 2 uM after 48 hrs by Giemsa staining-based Neubauer chamber counting analysis. Format: functional, organism-based. As to conditions: THP-1.
The test system of series [22] is Trypanosoma cruzi. As to conditions: Y, 32 to 64 uM. This is another data set of the same source.
Description: Inhibition of cysteine peptidase in Trypanosoma cruzi Y epimastigotes at 32 to 64 uM after 12 hrs by gelatin zymography assay
In series [23] the test system is Trypanosoma cruzi. As to the kind of experiment: Trypanocidal activity against Trypanosoma cruzi Y infected in BALB/c mouse assessed as mouse survival at 100 mg/kg treated from day 2 to day 9 post-infection. Format: functional.
The subject of series [24] is Trypanosoma cruzi. As to the kind of experiment: Inhibition of MMP9 in Trypanosoma cruzi Y epimastigotes assessed as effect on protein level at 32 uM after 5 days by Western blotting analysis.
The next series has as its target Carbonic anhydrase 2 (Homo sapiens, UniProt P00918). Briefly: Inhibition of human recombinant carbonic anhydrase-2-mediated CO2 hydration by stopped-flow assay.
Another series addresses Carbonic anhydrase 1 (Homo sapiens, UniProt P00915). As to the kind of experiment: Inhibition of human recombinant carbonic anhydrase-1-mediated CO2 hydration by stopped-flow assay.

pIC50, pKi: −log10 of the molar value. Active and inactive are the calls of the source. No cut-off for these calls is given here.

Carbonic anhydrase 1, sequence (P00915 whole entry): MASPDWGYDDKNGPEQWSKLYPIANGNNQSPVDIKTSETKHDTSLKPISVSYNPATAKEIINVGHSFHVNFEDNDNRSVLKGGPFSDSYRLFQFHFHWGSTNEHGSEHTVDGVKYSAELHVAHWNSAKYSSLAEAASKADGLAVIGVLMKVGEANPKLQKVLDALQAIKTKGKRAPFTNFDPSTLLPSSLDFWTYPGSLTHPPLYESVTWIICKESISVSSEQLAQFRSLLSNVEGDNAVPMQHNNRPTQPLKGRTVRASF

One may read the pIC50 as the IC50 on a negative log10 scale, so that one unit is a factor of ten. One may read the CC50 as the concentration giving 50% cytotoxicity. As usually defined, the pKi is the Ki on a negative log10 scale, so that one unit is a factor of ten. Consider `O=C(NO)C1CC(c2ccc(OCc3ccccc3)cc2)=NO1` (centres undefined), for which the Activity with Trypanosoma cruzi [1] turned out to be 100%; with Trypanosoma cruzi [2], 5%; in the series on Trypanosoma cruzi [6], 100%; in the series on Trypanosoma cruzi [10], 100%. Also, the outcome in the series on Trypanosoma cruzi [3], with Trypanosoma cruzi [11] and in the series on Trypanosoma cruzi [21] was Active. Also, the pIC50 in the series on Trypanosoma cruzi [4] is 5.46; in the series on Trypanosoma cruzi [8] it was 5.04; in the series on Trypanosoma cruzi [13] it was 5.15; in the series with Trypanosoma cruzi [14], 4.98; with Trypanosoma cruzi [15] it was 5.23; in the series with Trypanosoma cruzi [19], over 6.00. For the same compound, the result with Trypanosoma cruzi [5] was inactive. Besides, in [7], the CC50 at 24 h stood at 92 µM. The Survival in the series with Trypanosoma cruzi [9] is 25 days. In series [12], the CC50 at 48 h came out at 64 µM. The inhibition result in the series on Trypanosoma cruzi [16], with Trypanosoma cruzi [20] and in the series with Trypanosoma cruzi [22] was “Active” each time. Further, the negative logarithm of the Ki (pKi) in series [17] is 7.40. In the series on Trypanosoma cruzi [18] (120 h, read-out: GI), the inhibition of growth at 32 µM amounted to 100%.
On to `CC1(C(=O)NO)CC(c2cccc(Br)c2)=NO1` (centres undefined), for which the pKi in [17] was 6.21. For the same compound, the “growth inhibition (GI)” value with Trypanosoma cruzi [18] was “inactive”.
Taken in the same sequence, the figures for `CCOc1ccccc1C1=NOC(C(=O)NO)C1` (centres undefined) were 7.03 and “Active”.
Consider `CC1(C(=O)NO)CC(c2ccccc2F)=NO1` (centres undefined), for which the negative logarithm of the Ki (pKi) in series [17] was 6.85.
The same measure, in the same setting: to `CC1(C(=O)NO)CC(c2cccc(F)c2)=NO1` (centres undefined) belongs 6.74.
For `O=C(Cn1ccnc1[N+](=O)[O-])NCc1ccccc1` [BENZNIDAZOLE], the Survival in the series on Trypanosoma cruzi [23] amounted to 25 days. For the same compound, the “growth inhibition (GI)” value in the series with Trypanosoma cruzi [18] is “Active”.
Regarding `CCOc1ccc(C2=NOC(C(=O)NO)C2)cc1` (centres undefined), the pKi in [17] is 7.15. For the same compound, the “growth inhibition (GI)” value in the series on Trypanosoma cruzi [18] was “Active”.
Turning to `C[C@H]1c2cccc(O)c2C(=O)C2=C(O)[C@]3(O)C(=O)C(C(N)=O)=C(O)[C@@H](N(C)C)[C@@H]3[C@@H](O)[C@@H]21`, the inhibition result in the series with Trypanosoma cruzi [24] was “inactive”.
Turning to `CC1(C(=O)NO)CC(c2cccc(Cl)c2)=NO1` (centres undefined), the pKi in series [17] is 6.44. For the same compound, in the series on Trypanosoma cruzi [18], the “growth inhibition (GI)” value was “inactive”.
For the compound `O=C(NO)C1CC(c2cccc(Cl)c2)=NO1` (centres undefined), in [17], the negative logarithm of the Ki (pKi) is 6.57. In addition, the “growth inhibition (GI)” value in the series with Trypanosoma cruzi [18] is “Active”.
Taken in the same sequence, the figures for `O=C(NO)C1CC(c2ccccc2Cl)=NO1` (centres undefined) were 6.58 and “Active”.
Taken in the same sequence, the figures for `O=C(NO)C1CC(c2ccc(Cl)cc2)=NO1` (centres undefined) were 6.72 and “Active”.
Taken in the same sequence, the figures for `O=C(NO)C1CC(c2ccccc2)=NO1` (centres undefined) were 6.37 and “inactive”.
Turning to `CCOc1ccccc1C1=NOC(C(=O)NN)C1` (centres undefined), the pKi (on Carbonic anhydrase 2; at Carbonic anhydrase 1; in series [17]) was under 4.00 each time.
With `CCOc1ccc(C2=NOC(C(=O)NN)C2)cc1` (centres undefined), the pKi (on Carbonic anhydrase 2; at Carbonic anhydrase 1; in [17]) was under 4.00 in each case.
